Converted amounts (≈) assume the structure as drawn. Each block holds one molecule with its values, some of them ahead of it.
Key:
[1] = system: Syncephalastrum racemosum; assay: Antifungal activity against Syncephalastrum racemosum assessed as zone of inhibition; format: functional
Candida albicans [2] = assay: Antifungal activity against Candida albicans ATCC 10231 assessed as zone of inhibition incubated for 24 hrs by disc diffusion method; format: functional
Aspergillus fumigatus = assay: Antifungal activity against Aspergillus fumigatus assessed as zone of inhibition; format: functional
Saccharomyces cerevisiae = assay: Antimicrobial activity against Saccharomyces cerevisiae assessed as zone of inhibition; format: functional
Candida albicans [3] = assay: Antifungal activity against Candida albicans assessed as zone of inhibition by serial dilution and disc diffusion method; format: functional
Nakaseomyces glabratus [4] = assay: Antifungal activity against Candida glabrata ATCC 90030; format: functional
Candida albicans [5] = assay: Antifungal activity against Candida albicans ATCC 10231; format: functional
Pichia kudriavzevii [6] = assay: Antifungal activity against Candida krusei ATCC 6258; format: functional
Candida parapsilosis [7] = assay: Antifungal activity against Candida parapsilosis ATCC 22019; format: functional; conditions: Lodderomyces parapsilosis
Candida albicans [8] = assay: Antifungal activity against Candida albicans; format: functional
Geotrichum candidum = assay: Antifungal activity against Geotrichum candidum; format: functional
Aspergillus flavus = assay: Antimicrobial activity against Aspergillus flavus assessed as zone of inhibition; format: functional
Trichophyton rubrum = assay: Antifungal activity against Trichophyton rubrum assessed as diameter of zone inhibition; format: functional
Aspergillus niger [9] = assay: Antifungal activity against Aspergillus niger assessed as zone of inhibition by disc diffusion method; format: functional
Candida tropicalis = assay: Antifungal activity against Candida tropicalis assessed as zone of inhibition by disc diffusion method; format: functional
Cryptococcus neoformans = assay: Antifungal activity against Cryptococcus neoformans assessed as reduction in fungal growth incubated for 24 hrs by broth microdilution method; format: functional
Candida albicans [10] = assay: Antimicrobial activity against Candida albicans ATCC 64124 assessed as reduction in microbial growth by CLSI protocol based micro-broth dilution method; format: functional
Candida albicans [11] = assay: Antifungal activity against Candida albicans assessed as reduction in fungal growth incubated for 48 hrs by broth micro-dilution method; format: functional
Candida albicans [12] = assay: Antifungal activity against Candida albicans NRRL-Y477 assessed as zone of inhibition by disc diffusion method; format: functional
Candida albicans [13] = assay: Antifungal activity against Candida albicans MTCC 227 by disc diffusion method; format: functional, organism-based
Aspergillus niger [14] = assay: Antifungal activity against Aspergillus niger MTCC 282 by disc diffusion method; format: functional, organism-based
Candida albicans [15] = assay: Antifungal activity against Candida albicans MTCC 3018 assessed as inhibition of fungal growth incubated for 24 hrs; format: functional
Candida albicans [16] = assay: Antifungal activity against Candida albicans MTCC 4748 assessed as inhibition of fungal growth incubated for 24 hrs; format: functional
Pichia kudriavzevii [17] = assay: Antifungal activity against Pichia kudriavzevii MTCC 3020 assessed as inhibition of fungal growth incubated for 24 hrs; format: functional
Candida parapsilosis [18] = assay: Antifungal activity against Candida parapsilosis MTCC 1744 assessed as inhibition of fungal growth incubated for 24 hrs; format: functional; conditions: Lodderomyces parapsilosis
Nakaseomyces glabratus [19] = assay: Antifungal activity against Candida glabrata MTCC 3019 assessed as inhibition of fungal growth incubated for 24 hrs; format: functional
Candida albicans [20] = assay: Antifungal activity against Candida albicans MTCC 227 assessed as inhibition of fungal growth incubated for 24 hrs; format: functional
Candida albicans [21] = assay: Antifungal activity against Candida albicans MTCC 1637 assessed as inhibition of fungal growth incubated for 24 hrs; format: functional
Candida albicans [22] = assay: Antifungal activity against Candida albicans MTCC 7315 assessed as inhibition of fungal growth incubated for 24 hrs; format: functional
Candida albicans [23] = assay: Antifungal activity against Candida albicans MTCC 3017 assessed as inhibition of fungal growth incubated for 24 hrs; format: functional

SMILES: CCc1nnc2c(Nc3ccc(C(=O)/C=C/c4ccc(C)cc4)cc3)nc3ccccc3n12
- inhibition zone (IZ) [1]: 20 mm

SMILES: CCOc1ccccc1/N=N/c1c(N)nc2c(/N=N/c3ccccc3OCC)cnn2c1N
- inhibition zone (IZ) (Candida albicans [2]): 21 mm

SMILES: CCc1nnc2c(Nc3ccc(C(=O)/C=C/c4ccc(OC)cc4)cc3)nc3ccccc3n12
- inhibition zone (IZ) (Aspergillus fumigatus): 21 mm

SMILES: COc1cccc(/C=N/Nc2ncnc3[nH]ccc23)c1OC
- inhibition zone (IZ) (Saccharomyces cerevisiae): 24 mm
- inhibition zone (IZ) (Candida albicans [3]): 30 mm

- MIC (Nakaseomyces glabratus [4]): 0.78 µg/mL (≈ 2.49 µM)
- MIC50 (Candida albicans [5]): 0.78 µg/mL (≈ 2.49 µM)
- MIC (Pichia kudriavzevii [6]): 0.78 µg/mL (≈ 2.49 µM)
- MIC (Candida parapsilosis [7]): 0.78 µg/mL (≈ 2.49 µM)
SMILES: Nc1ccc(C(=O)NNc2nc3ccccc3nc2Cl)cc1

- MIC (Nakaseomyces glabratus [4]): 0.78 µg/mL (≈ 2.9 µM)
- MIC50 (Candida albicans [5]): 0.78 µg/mL (≈ 2.9 µM)
- MIC (Pichia kudriavzevii [6]): 0.78 µg/mL (≈ 2.9 µM)
- MIC (Candida parapsilosis [7]): 0.78 µg/mL (≈ 2.9 µM)
SMILES: Cc1nc2ccccc2nc1N1CC(C(=O)O)=CC1=O

- MIC (Candida albicans [8]): 8 µg/mL (≈ 16.3 µM)
- MIC (Geotrichum candidum): 6 µg/mL (≈ 12.2 µM)
SMILES: CCOC(=O)Cc1nc2c3[se]c4nc5c(nc4c3ncn2n1)c(C)nn5-c1ccccc1

SMILES: COc1ccc(/C=N/Nc2ncnc3[nH]ccc23)cc1
- inhibition zone (IZ) (Saccharomyces cerevisiae): 24 mm
- inhibition zone (IZ) (Candida albicans [3]): 30 mm

SMILES: Nc1ncc(C2=NC3=Nc4ccccc4C3=N2)c(N)n1
- inhibition zone (IZ) (Aspergillus flavus): 18 mm

SMILES: CN(C)c1ccc(-c2cc(Br)c(O)nn2)cc1
- inhibition zone (IZ) (Trichophyton rubrum): 15 mm

- MIC (Nakaseomyces glabratus [4]): 0.78 µg/mL (≈ 2.66 µM)
- MIC50 (Candida albicans [5]): 0.78 µg/mL (≈ 2.66 µM)
- MIC (Pichia kudriavzevii [6]): 0.78 µg/mL (≈ 2.66 µM)
- MIC (Candida parapsilosis [7]): 0.78 µg/mL (≈ 2.66 µM)
SMILES: Cc1nc2ccccc2nc1NNC(=O)c1ccc(N)cc1

SMILES: COc1ccc(/C=N/Nc2ncnc3[nH]ccc23)c(OC)c1
- inhibition zone (IZ) (Saccharomyces cerevisiae): 24 mm
- inhibition zone (IZ) (Candida albicans [3]): 30 mm

SMILES: CC1=NN(c2ccccc2)C2N=C3SCCN3C(c3ccc(O)cc3)C12 (stereo not drawn)
- inhibition zone (IZ) (Aspergillus niger [9]): 24 mm
- inhibition zone (IZ) (Candida tropicalis): 26 mm

SMILES: Brc1cc(Br)cc(/C=N/Nc2ncnc3[nH]ccc23)c1
- inhibition zone (IZ) (Saccharomyces cerevisiae): 21 mm
- inhibition zone (IZ) (Candida albicans [3]): 21 mm

- MIC (Cryptococcus neoformans): 12.5 µg/mL (≈ 27.9 µM)
SMILES: Cc1nc(NC(=O)c2cc3ccccc3o2)c2c(C(F)(F)F)cc(-c3ccccc3)nc2n1

- MIC (Geotrichum candidum): 4 µg/mL (≈ 11 µM)
SMILES: Cc1nn(-c2ccccc2)c2nc3sc4c(c3nc12)N=C(N)COC4=O

- MIC (Candida albicans [10]): 4 µg/mL
SMILES: Cc1nc(-c2ccc(C(C)(C)C)cc2)sc1-c1ccnc(NCCCN)n1

- MIC (Nakaseomyces glabratus [4]): 0.78 µg/mL (≈ 2.73 µM)
- MIC50 (Candida albicans [5]): 0.78 µg/mL (≈ 2.73 µM)
- MIC (Pichia kudriavzevii [6]): 0.78 µg/mL (≈ 2.73 µM)
- MIC (Candida parapsilosis [7]): 0.78 µg/mL (≈ 2.73 µM)
SMILES: COc1nc2ccccc2nc1N1CC(C(=O)O)=CC1=O

- MIC (Candida albicans [11]): 50 µg/mL (≈ 113 µM)
SMILES: Cc1ccc(S(=O)(=O)Nc2nc(/N=N/c3c(N)nn4c(C)cc(C)nc34)cs2)cc1

- MIC (Candida albicans [11]): 25 µg/mL (≈ 43.4 µM)
SMILES: Cc1ccc(S(=O)(=O)Nc2nc(/N=N/c3c(N)nn4c(-c5ccc([N+](=O)[O-])cc5)c(C#N)c(N)nc34)cs2)cc1

SMILES: CCc1nnc2c(Nc3ccc(C4=NN(c5ccccc5)C(c5ccc(Cl)cc5)C4)cc3)nc3ccccc3n12 (stereo not drawn)
- inhibition zone (IZ) (Aspergillus fumigatus): 21 mm

SMILES: O=C(CSc1nc2sc3c(c2c(=O)n1-c1ccc(Cl)cc1)CCCC3)Nc1nc(-c2cccc(Br)c2)cs1
- inhibition zone (IZ) (Candida albicans [12]): 18 mm

SMILES: CCc1nnc2c(Nc3ccc(C4=NN(c5ccccc5)C(c5ccc(OC)cc5)C4)cc3)nc3ccccc3n12 (stereo not drawn)
- inhibition zone (IZ) [1]: 21 mm

- EC50 (Candida albicans [13]): 0.16 µg/mL (≈ 0.364 µM)
- EC50 (Aspergillus niger [14]): 0.16 µg/mL (≈ 0.364 µM)
SMILES: CC(=O)N1N=C(C2=C(C)NC(=O)NC2c2ccc(F)cc2)OC1c1cccc([N+](=O)[O-])c1 (stereo not drawn)

- MIC (Candida albicans [15]): 3.9 µg/mL (≈ 8.79 µM)
- MIC (Candida albicans [16]): 3.9 µg/mL (≈ 8.79 µM)
- MIC (Pichia kudriavzevii [17]): 3.9 µg/mL (≈ 8.79 µM)
- MIC (Candida parapsilosis [18]): 3.9 µg/mL (≈ 8.79 µM)
- MIC (Nakaseomyces glabratus [19]): 3.9 µg/mL (≈ 8.79 µM)
- MIC (Candida albicans [20]): 3.9 µg/mL (≈ 8.79 µM)
- MIC (Candida albicans [21]): 3.9 µg/mL (≈ 8.79 µM)
- MIC (Candida albicans [22]): 3.9 µg/mL (≈ 8.79 µM)
- MIC (Candida albicans [23]): 3.9 µg/mL (≈ 8.79 µM)
SMILES: Fc1ccc(-c2nnc3c4ccc(C(F)(F)F)nc4nc(-c4ccccc4)n23)c(Cl)c1

- MIC (Candida albicans [11]): 100 µg/mL (≈ 177 µM)
SMILES: Cc1ccc(S(=O)(=O)Nc2nc(/N=N/c3c(N)nn4c(-c5ccc(Cl)cc5)c(C#N)c(N)nc34)cs2)cc1

- MIC (Candida albicans [11]): 6.25 µg/mL (≈ 13.7 µM)
SMILES: Cc1ccc(S(=O)(=O)Nc2nc(/N=N/c3c(N)nn4c(N)c(C#N)nnc34)cs2)cc1

SMILES: CC1=NN(c2ccccc2)C2N=C3SCCN3C(c3ccc(Cl)cc3)C12 (stereo not drawn)
- inhibition zone (IZ) (Aspergillus niger [9]): 24 mm
- inhibition zone (IZ) (Candida tropicalis): 26 mm

SMILES: CCc1ccccc1/N=N/c1c(N)nn2c(-c3ccc(Cl)cc3)cc(-c3ccccc3)nc12
- inhibition zone (IZ) (Candida albicans [2]): 19 mm

SMILES: CCc1nnc2c(Nc3ccc(C4=NNC(c5ccc(Cl)cc5)C4)cc3)nc3ccccc3n12 (stereo not drawn)
- inhibition zone (IZ) (Aspergillus fumigatus): 22 mm

SMILES: COC(=O)Nc1nc2ccccc2[nH]1 [CARBENDAZIM]
- EC50 (Candida albicans [13]): 0.21 µg/mL (≈ 1.1 µM)

SMILES: C[C@@H]1C[C@@H]([C@H](O)CC2CC(=O)NC(=O)C2)C(=O)[C@@H](C)C1 [CYCLOHEXIMIDE]
- MIC (Candida albicans [11]): 3.12 µg/mL (≈ 11.1 µM)

SMILES: COC1=CC(=O)C[C@@H](C)[C@]12Oc1c(Cl)c(OC)cc(OC)c1C2=O [GRISEOFULVIN]
- inhibition zone (IZ) (Aspergillus niger [9]): 22 mm
- MIC (Candida albicans [8]): 500 µg/mL (≈ 1420 µM)
- inhibition zone (IZ) (Candida tropicalis): 25 mm

— ChEMBL document CHEMBL6103565, “Current strategies in design and synthesis of antifungals hybrid and chimeric diazine derivatives” (Bioorg Med Chem, 2025)
